Values after ≈ are worked out from the molar mass of the structure shown.
What was measured:
[1] = literature; cited from earlier work
[2] = cited from earlier work; for water solubility compared with puerarin: literature
[3] = test system: myocardio ischemia mice; assay: T wave amplitude variation in pituitrin acute myocardial ischemia model; assay type: in vivo, Sprague-Dawley mice (SD mice); details: 50 mg/kg
Text: (§1) Embodiment 6: […] Pituitrin injection was purchased from Nanjing Xinbai Pharmaceutical Co., Ltd., normal saline injection from Nanjing Xiaoying Pharmaceutical Co., Ltd., and DMSO, PG, and anhydrous ethanol were of chromatographic class. […] The data were presented with, and tested with t. P<0.05 indicates substantial difference, P<0.01 indicates very substantial difference; and P<0.001 indicates extremely substantial difference.

[4] = test system: human chronmyelogenors leukemia cell strain K562; assay: K562 cell toxicity test (MTT); assay type: cell-based; details: 48 h; for OD value: MTT 490 nm
Description: K-562 cells were cultured in an incubator at 37° C. with 5% CO2 saturated humidity in the RPMI-1640 complete culture medium containing inactivated calf serum with volume fraction of 10%, 100 U penicillin and streptomycin. […] For each drug concentration, 6 complex cases were provided. Put back the culture plate into the cell incubator, after 48 h, add 20 μL MTT (5 mg/mL) solution and continue to incubate it in the incubator for 4 h, then each case was added with triple liquid 100 μL, put it overnight to allow the crystal to fully dissolve. Vibrate it with oscillator for 20 min and determine the light absorption at 490 nm with a fully automatic ELISA instrument, and calculate the average suppression rate, suppression rate (%)=(control group A490−test group A490)/control group A490), the experiment was repeated three times. Relevant analysis and Student t tests in Microsoft Excel 2003 were used, and data are presented in X±SD.

[5] = test system: myocardio ischemia mice; assay: Heart rate in pituitrin acute myocardial ischemia model; assay type: in vivo, Sprague-Dawley mice (SD mice); details: 50 mg/kg
Text: as §1

[6] = test system: human breast cancer cell strain MDA-MB-231; assay: MDA-MB-231 cell toxicity test (MTT); assay type: cell-based; details: 48 h; for OD value: MTT 490 nm
Description: MDA-MB-231 cells were cultured in an incubator at 37° C. with 5% CO2 saturated humidity in the RPMI-1640 complete culture medium containing inactivated fetal calf serum with volume fraction of 10%, 100 U penicillin and streptomycin. Take MDA-MB-231 cells in logarithmic phase (primary culture bottle) and discard the culture solution. […] Prepare the suspended solution of cells and adjust the cell concentration with appropriate amount of complete culture medium to 3×10^4/mL. Fed the cells into a tissue culture plate 96, with cell suspended liquid of 180 μL in each case, and put the culture plate into a cell incubator (37° C., 5% CO2) for conventional culture. When cells grew to 50%-70%, add drug liquid of different concentration. […] For DMSO solvent control group, add 20 μL of PBS containing […] and for the blank group, add 20 μL of PBS. For each drug concentration, 6 complex cases were provided. Put back the culture plate into the cell incubator, after 48 h, add 20 μL MTT (5 mg/mL) solution and continue to incubate it in the incubator for 4 h, then remove the supernatant and dry it with tissue, add 200 μL DMSO into each case and vibrate it in the rocker without light for 15 min, to allow the crystal to fully dissolve. Determine the light absorption at 490 nm with a fully automatic ELISA instrument, and calculate the average suppression rate, suppression rate (%)=(control group A490−test group A490)/control group A490), the experiment was repeated three times. Relevant analysis and Student t tests in Microsoft Excel 2003 were used, and data are presented in X±SD.

[7] = in vivo; details: in vivo, 50 mg/kg
Description: Embodiment 5: Metabokinetic Experiment of monofructosyl-β(2,6)-Puerarin in Blood
In HPLC analysis, DIONEX was used, with chromatographic column as Discovery HS C18 ([…], 5 μm), feeding specimen volume 20 μL, column temperature 30° C., the detector was UVD170U, with detection wavelength of 254 nm, flowing phase: A, water, B, chromatographic class methanol, A:B=80:20, at flow rate of 1 mL/min.
Sprague-Dawley mice (SD mice), with weight of 180-220 g, male and female in half, provided by Medical Experiment Center of Nantong University, with production permit No.: SCXK (Su) 20080010.
SD mice were randomly divided into 2 groups of 5 each, fasting for 12 hours before experiment. Puerarin and monofructosyl-β(2,6)-puerarin were respectively dissolved in 20% 1,2-PG normal saline, and injected into mouse caudal vein at a dosage of 50 mg/kg. After injection, at t=0 min, 4 min, 7 min, 17 min, 40 min, 60 min, 120 min and 180 min, 0.5 mL of blood was taken from orbit and put into centrifugal tubes treated with liquaemin, then it was immediately separated by centrifuging at 3000 rpm for 15 min, to separate out plasma for analysis.
Plasma of 100 μL was precisely taken and put into test tube, and 400 μL of methanol sedimented protein was added, they were mixed on vortex mixer for 5 min, then centrifuged at 10000 rpm for 10 min, and the supernatant was used for HPLC analysis.
The plasma concentration of the puerarin and monofructosyl-β(2,6)-puerarin specimens prepared as per 3.2 was obtained by calculation with external reference method. The data obtained were analyzed using pharmacokinetics statistic software.

[8] = physchem; details: 25° C.
[9] = Solubility determination at 25° C.
[10] = test system: aorta vascular smooth muscle; details: compared with puerarin, literature; cited from earlier work
[11] = both, Sprague-Dawley, mouse, iv

O=c1c(-c2ccc(O)cc2)coc2c([C@@H]3O[C@H](CO)[C@@H](O)[C@H](O)[C@H]3O)c(O[C@@H]3O[C@H](CO)[C@@H](O)[C@H](O)[C@H]3O)ccc12 [7-O-glucoside puerarin]
mean retaining time (MRT) relative to puerarin [1]: 2.8 times | plasma half-life (t1/2) relative to puerarin [1]: 2 times | water solubility compared with puerarin [2]: 18 times

O=c1c(-c2ccc(O)cc2)coc2c(C3OC(CO)C(O)C(O)C3O)c(OC3OC(COC4OC(CO)C(O)C(O)C4O)C(O)C(O)C3O)ccc12 (stereo not drawn) [7-O-isomaltoside puerarin]
water solubility compared with puerarin [2]: 100 times

O=c1c(-c2ccc(O)cc2)coc2c([C@@H]3O[C@H](CO)[C@@H](O)[C@H](O)[C@H]3O)c(O)ccc12 [Puerarin, 7,4′-dyhydroxy-8-β-D-glucosyl isoflavone]
T wave amplitude variation ([3]; 15 s after Pit): 0.082 ± 0.052 mv | T wave amplitude variation ([3]; 30 s after Pit): 0.114 ± 0.096 mv | T wave amplitude variation ([3]; 1 min after Pit): 0.118 ± 0.086 mv | T wave amplitude variation ([3]; 2 min after Pit): 0.132 ± 0.096 mv | T wave amplitude variation ([3]; 5 min after Pit): 0.118 ± 0.075 mv | T wave amplitude variation ([3]; 10 min after Pit): 0.074 ± 0.061 mv | Average suppression rate ([4]; 1 μmol/L): 10.65% | OD value ([4]; 1 μmol/L): 0.917 ± 0.031 | Average suppression rate ([4]; 5 μmol/L): 7.52% | OD value ([4]; 5 μmol/L): 0.949 ± 0.023 | Average suppression rate ([4]; 10 μmol/L): 9.46% | OD value ([4]; 10 μmol/L): 0.929 ± 0.030 | Average suppression rate ([4]; 20 μmol/L): 10.68% | OD value ([4]; 20 μmol/L): 0.916 ± 0.056 | Average suppression rate ([4]; 50 μmol/L): 22.73% | OD value ([4]; 50 μmol/L): 0.793 ± 0.083 | Average suppression rate ([4]; 100 μmol/L): 30.89% | OD value ([4]; 100 μmol/L): 0.709 ± 0.038 | Average suppression rate ([4]; 150 μmol/L): 36.65% | OD value ([4]; 150 μmol/L): 0.650 ± 0.039 | Average suppression rate ([4]; 200 μmol/L): 54.19% | OD value ([4]; 200 μmol/L): 0.470 ± 0.027 | Heart rate ([5]; 5 s): 512 ± 36 time · min^−1 | Heart rate ([5]; 10 s): 469 ± 32 time · min^−1 | Heart rate ([5]; 15 s): 437 ± 63 time · min^−1 | Heart rate ([5]; 30 s): 411 ± 69 time · min^−1 | Heart rate ([5]; 1 min): 379 ± 85 time · min^−1 | Heart rate ([5]; 2 min): 379 ± 72 time · min^−1 | Heart rate ([5]; 5 min): 384 ± 53 time · min^−1 | Heart rate ([5]; 10 min): 434 ± 51 time · min^−1 | Heart rate ([5]; Normal): 484 ± 33 time · min^−1 | Average suppression rate ([6]; 0.5 μmol/L): 10.68% | OD value ([6]; 0.5 μmol/L): 0.632 ± 0.056 | Average suppression rate ([6]; 1 μmol/L): 11.67% | OD value ([6]; 1 μmol/L): 0.624 ± 0.053 | Average suppression rate ([6]; 5 μmol/L): 12.43% | OD value ([6]; 5 μmol/L): 0.619 ± 0.090 | Average suppression rate ([6]; 10 μmol/L): 13.77% | OD value ([6]; 10 μmol/L): 0.610 ± 0.039 | Average suppression rate ([6]; 50 μmol/L): 24.92% | OD value ([6]; 50 μmol/L): 0.531 ± 0.066 | Average suppression rate ([6]; 100 μmol/L): 33.06% | OD value ([6]; 100 μmol/L): 0.473 ± 0.034 | Average suppression rate ([6]; 150 μmol/L): 47.47% | OD value ([6]; 150 μmol/L): 0.372 ± 0.037 | Average suppression rate ([6]; 200 μmol/L): 61.91% | OD value ([6]; 200 μmol/L): 0.619 ± 0.042 | MRT inf [7, 11]: 20.6 min | MRT last [7, 11]: 19.7 min | clearance [7, 11]: 13 ± 3 mL/min/kg | half-life [7, 11]: 17 ± 3.09 min | AUC (0-t) [7]: 4096.192 ± 973.839 mg/Lxmin | solubility [8]: 5200 µg/mL (≈ 12.5 mM) | solubility in water ([2]; background statement): 6240 µg/mL (≈ 15 mM)

O=c1c(-c2ccc(O)cc2)coc2c([C@@H]3O[C@H](CO[C@]4(CO)O[C@H](CO[C@]5(CO)O[C@H](CO)[C@@H](O)[C@@H]5O)[C@@H](O)[C@@H]4O)[C@@H](O)[C@H](O)[C@H]3O)c(O)ccc12 [bifructosyl-β(2,6)-puerarin]
solubility [9]: 280800 µg/mL (≈ 379 mM) | solubility relative to puerarin ([9]; puerarin 5.2 g/L): 54 times

O=c1c(-c2ccc(O)cc2)coc2c([C@@H]3O[C@H](CO[C@H]4O[C@H](CO)[C@@H](O)[C@H](O)[C@H]4O)[C@@H](O)[C@H](O)[C@H]3O)c(O)ccc12 [glucosyl-α-(1, 6)-puerarin]
water solubility compared with puerarin [2]: 14 times

O=c1c(-c2ccc(O)cc2)coc2c([C@@H]3O[C@H](CO[C@H]4O[C@H](CO)[C@@H](O[C@H]5O[C@H](CO)[C@@H](O)[C@H](O)[C@H]5O)[C@H](O)[C@H]4O)[C@@H](O)[C@H](O)[C@H]3O)c(O)ccc12 [maltosyl-α-(1,6)-puerarin]
water solubility compared with puerarin [2]: 168 times

semi-emulsified glycosyl-α-(1,4)-puerarin
vasodilatation effect [10]: could produce better vasodilatation effect than puerarin

Source: patent US8598128B2, “Fructosylated puerarin, and preparation method and use thereof” (priority 2010, dated 2013)
